Columns and labels:
Experiment in all cases: radiometric in vitro kinase assay, autoradiography
Type in all cases: biochemical
His-M3K∂6 = target: T1, His-M3K∂6 (Arabidopsis thaliana, UniProt Q9C9U5); settings: autophosphorylation and histone phosphorylation; 200 µM ATP plus [γ-32P]ATP, labelled compound; 10 mM MgCl2; pH 7.5; room temperature
T1 construct: gene SIS8; 6 x His tag, expressed in E. coli BL21 (DE3); plasmid from Takahashi et al. 2020
T1 sequence (Q9C9U5 1-1030): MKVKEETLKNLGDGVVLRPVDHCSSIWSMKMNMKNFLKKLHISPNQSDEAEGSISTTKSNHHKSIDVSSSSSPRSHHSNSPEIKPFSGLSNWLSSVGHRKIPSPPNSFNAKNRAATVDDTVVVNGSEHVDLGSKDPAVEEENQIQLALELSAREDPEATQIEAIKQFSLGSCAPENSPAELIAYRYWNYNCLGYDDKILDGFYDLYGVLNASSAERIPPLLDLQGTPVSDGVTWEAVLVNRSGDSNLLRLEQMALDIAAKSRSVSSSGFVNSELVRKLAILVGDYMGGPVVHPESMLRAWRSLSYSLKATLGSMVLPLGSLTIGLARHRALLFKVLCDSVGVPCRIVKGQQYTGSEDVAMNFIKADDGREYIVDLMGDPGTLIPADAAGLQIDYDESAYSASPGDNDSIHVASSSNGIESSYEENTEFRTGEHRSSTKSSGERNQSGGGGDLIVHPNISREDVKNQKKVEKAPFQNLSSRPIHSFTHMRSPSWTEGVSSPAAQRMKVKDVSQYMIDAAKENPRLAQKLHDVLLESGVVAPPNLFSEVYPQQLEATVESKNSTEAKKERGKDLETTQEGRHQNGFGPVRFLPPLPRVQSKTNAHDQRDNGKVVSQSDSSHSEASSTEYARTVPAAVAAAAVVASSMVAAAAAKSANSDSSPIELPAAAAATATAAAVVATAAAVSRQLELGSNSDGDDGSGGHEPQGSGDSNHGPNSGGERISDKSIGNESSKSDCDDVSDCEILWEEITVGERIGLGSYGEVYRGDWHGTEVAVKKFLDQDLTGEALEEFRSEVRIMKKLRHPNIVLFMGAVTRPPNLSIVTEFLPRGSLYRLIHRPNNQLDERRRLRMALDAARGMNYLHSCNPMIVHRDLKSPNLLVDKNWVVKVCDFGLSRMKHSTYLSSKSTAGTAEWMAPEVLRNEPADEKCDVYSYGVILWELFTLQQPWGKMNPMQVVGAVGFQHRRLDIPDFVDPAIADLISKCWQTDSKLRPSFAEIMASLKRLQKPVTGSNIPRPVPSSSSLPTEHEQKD

His-OST1 = target: T2, His-OST1 (Arabidopsis thaliana, UniProt Q940H6); settings: 200 µM ATP plus [γ-32P]ATP, 10 mM MgCl2, pH 7.5, room temperature
T2 construct: gene SRK2E; 6 x His tag, expressed in E. coli BL21 (DE3); plasmid from Takahashi et al. 2020
T2 sequence (Q940H6 1-362): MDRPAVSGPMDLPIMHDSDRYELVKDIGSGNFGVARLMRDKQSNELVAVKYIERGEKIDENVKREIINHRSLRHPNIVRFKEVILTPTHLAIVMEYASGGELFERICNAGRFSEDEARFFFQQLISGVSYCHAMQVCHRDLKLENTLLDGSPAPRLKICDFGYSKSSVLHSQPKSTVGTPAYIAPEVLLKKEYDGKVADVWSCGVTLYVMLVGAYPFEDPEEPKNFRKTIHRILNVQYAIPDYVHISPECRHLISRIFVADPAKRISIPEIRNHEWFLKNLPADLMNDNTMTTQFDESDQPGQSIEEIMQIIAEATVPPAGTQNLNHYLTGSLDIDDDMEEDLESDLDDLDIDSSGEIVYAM

His-Raf12 = target: T3, His-Raf12 (Arabidopsis thaliana, UniProt F4JMR7); settings: autophosphorylation and histone phosphorylation; 200 µM ATP plus [γ-32P]ATP, labelled compound; 10 mM MgCl2; pH 7.5; room temperature
T3 construct: gene At4g23050; 6 x His tag, pET30a(+), expressed in E. coli BL21 (DE3); insert from cDNA of ABA-treated Col-0 leaf epidermis
T3 sequence (F4JMR7 1-735): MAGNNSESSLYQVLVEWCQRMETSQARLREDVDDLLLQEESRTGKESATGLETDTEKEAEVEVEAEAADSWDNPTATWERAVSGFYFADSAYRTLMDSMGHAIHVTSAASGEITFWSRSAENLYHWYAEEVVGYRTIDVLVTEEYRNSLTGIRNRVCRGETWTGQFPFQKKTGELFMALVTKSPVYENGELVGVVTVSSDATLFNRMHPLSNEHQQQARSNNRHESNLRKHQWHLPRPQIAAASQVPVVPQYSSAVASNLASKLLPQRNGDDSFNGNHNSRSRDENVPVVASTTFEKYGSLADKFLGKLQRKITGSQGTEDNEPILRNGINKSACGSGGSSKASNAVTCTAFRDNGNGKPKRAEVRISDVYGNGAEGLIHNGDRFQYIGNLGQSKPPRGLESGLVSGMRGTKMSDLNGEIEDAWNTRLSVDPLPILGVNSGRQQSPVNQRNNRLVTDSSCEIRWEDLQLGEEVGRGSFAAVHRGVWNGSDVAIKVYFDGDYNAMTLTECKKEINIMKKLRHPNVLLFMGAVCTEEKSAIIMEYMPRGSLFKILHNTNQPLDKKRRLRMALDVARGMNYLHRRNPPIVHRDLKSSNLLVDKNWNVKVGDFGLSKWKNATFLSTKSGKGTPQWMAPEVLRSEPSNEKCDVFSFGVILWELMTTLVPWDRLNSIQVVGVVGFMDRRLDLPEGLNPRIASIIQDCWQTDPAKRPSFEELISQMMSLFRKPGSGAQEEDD

SMILES | radiometric in vitro kinase assay, autoradiography (His-M3K∂6) | radiometric in vitro kinase assay, autoradiography (His-OST1; autophosphorylation and histone phosphorylation, labelled compound) | radiometric in vitro kinase assay, autoradiography (His-Raf12) | radiometric in vitro kinase assay, autoradiography (His-OST1; 100 µM K252a, 20 min preincubation, histone substrate)
Nc1ncnc2c1ncn2[C@@H]1O[C@H](COP(=O)(O)OP(=O)(O)OP(=O)(O)O)[C@@H](O)[C@H]1O [ATP] | we conducted protein phosphorylation assays using Raf-like kinases in both of these clades | His-OST1 autophosphorylated and phosphorylated histone proteins as a substrate | the kinase activity of Raf12, a B2 clade Raf-like kinase, was not inhibited by PP242 | –
COC(=O)[C@@]1(O)C[C@H]2O[C@]1(C)n1c3ccccc3c3c4c(c5c6ccccc6n2c5c31)C(=O)NC4 [K252a] | – | – | – | Kinase activity of His-OST1 was partially decreased by K252a, a potent kinase inhibitor

Reference: publication PMC12290280 (Plant and Cell Physiology, 2025)
